Data published in article PMC2879007 (Biochemical pharmacology, 2010).
Marks after values point to notes of the source that are not given here.

Tests used:
[1] = target: CYP2D6.1 (Homo sapiens, UniProt P10635); assay: bufotenine production from 5-MeO-DMT by recombinant CYP2D6.1; format: in vitro ADME
[2] = target: CYP2D6.2 (Homo sapiens, UniProt P10635, R296C/S486T); assay: bufotenine production from 5-MeO-DMT by recombinant CYP2D6.2; format: in vitro ADME
[3] = target: CYP2D6.10 (Homo sapiens, UniProt P10635, P34S/S486T); assay: bufotenine production from 5-MeO-DMT by recombinant CYP2D6.10; format: in vitro ADME
[4] = serum pharmacokinetics in wild-type FVB/N mice; format: in vivo; conditions: for Cmax / MRT / Tmax / half-life: FVB/N (wild-type), mouse, ip; for Cmax / MRT / Tmax / half-life / AUC0→∞: serum; for increase of Cmax by co-administered harmaline / increase of MRT by co-administered harmaline / increase of systemic exposure (AUC0→∞) by harmaline pre-treatment: 5-MeO-DMT 2 mg/kg i.p., harmaline 5 mg/kg i.p.
[5] = serum pharmacokinetics in Tg-CYP2D6; format: in vivo, mice; conditions: for Cmax / MRT / Tmax / half-life: Tg-CYP2D6 (CYP2D6-humanized), mouse, ip; for Cmax / MRT / Tmax / half-life / AUC0→∞: serum; for increase of systemic exposure (AUC0→∞) by harmaline pre-treatment: 5-MeO-DMT 2 mg/kg i.p., harmaline 5 mg/kg i.p.
[6] = 5-MeO-DMT depletion and bufotenine formation in human CYP2D6 PM hepatocytes; conditions: human, 5-MeO-DMT alone, 2 µM; for hepatocyte CLint at 2 µM: In vitro CLint
[7] = system: human CYP2D6 PM hepatocytes; assay: as above
[8] = 5-MeO-DMT depletion and bufotenine formation in human CYP2D6 EM hepatocytes; conditions: human, 5-MeO-DMT alone, 2 µM; for hepatocyte CLint at 2 µM: In vitro CLint
[9] = system: human CYP2D6 EM hepatocytes; assay: as above
[10] = target: purified human MAO-A; conditions: reversible competitive inhibitor; cited from earlier work
[11] = bufotenine production from 5-MeO-DMT, Vmax/Km
[12] = bufotenine production from 5-MeO-DMT, mean ± SEM
[13] = 5-MeO-DMT O-demethylase activity
[14] = wild-type mice, 2 mg/kg 5-MeO-DMT alone i.p.
[15] = Tg-CYP2D6 mice, 2 mg/kg 5-MeO-DMT alone i.p.
[16] = PM hepatocytes 2, with harmaline, 2 µM each
[17] = PM hepatocytes 3, with harmaline, 2 µM each
[18] = PM hepatocytes 4, with harmaline, 2 µM each

Compound `COc1ccc2[nH]cc(CCN(C)C)c2c1` [5-MeO-DMT, 5-Methoxy-N,N-dimethyltryptamine] has a CLint [1, 11] of 0.44 µL/pmol P450/min, a Vmax [1, 12] of 12.8 ± 0.4 pmol/pmol P450/min and a Km at 5 min ([1]; human, recombinant CYP2D6.1 reconstituted with P450 reductase, pH 7.4) of 29.3 ± 4.2 µM. The “lower catalytic efficiency (Vmax/Km) compared with wild-type CYP2D6.1” value [2, 13] was 2.6 fold, the CLint [2, 11] was 0.17 µL/pmol P450/min and the Vmax [2, 12] was 14.4 ± 0.9 pmol/pmol P450/min. The Km at 5 min ([2]; human, recombinant CYP2D6.2 reconstituted with P450 reductase, pH 7.4) was 85 ± 19.4 µM, the “lower catalytic efficiency (Vmax/Km) compared with wild-type CYP2D6.1” value [3, 13] was 40 fold and the CLint [3, 11] was 0.011 µL/pmol P450/min. For the same compound, the Vmax [3, 12] was 10.3 ± 2.2 pmol/pmol P450/min, the Km at 20 min ([3]; human, recombinant CYP2D6.10 reconstituted with P450 reductase, pH 7.4) was 947 ± 355 µM and the Cmax ([4]; 2 mg/kg) was 1360 ± 160 nM. It also gave an MRT ([4]; 2 mg/kg) of 19.1 min, a Tmax ([4]; 2 mg/kg) of 5.3 min and a half-life ([4]; 2 mg/kg) of 19.5 ± 12.2 min. The Cmax ([4]; 20 mg/kg) was 18300 ± 2800 nM, the MRT ([4]; 20 mg/kg) was 27.2 min and the Tmax ([4]; 20 mg/kg) was 7.5 min. The half-life ([4]; 20 mg/kg) was 13.4 ± 1 min, the “AUC0→∞” value [4, 14] was 25.1 ± 1.3 µmol·min/L and the “AUC0→∞” value ([4]; wild-type mice, 20 mg/kg 5-MeO-DMT i.p.) was 650 ± 78 µmol·min/L. For the same compound, the clearance [4, 14] was 370 ± 20 mL/min/kg, the “increase of Cmax by co-administered harmaline” value ([4]; wild-type mice) was “about 1.4 fold” and the “increase of MRT by co-administered harmaline” value ([4]; wild-type mice) was ~2.1 fold. For the same compound, the “increase of systemic exposure (AUC0→∞) by harmaline pre-treatment” value (“increase of systemic exposure (AUC0→∞)” below) ([4]; wild-type mice) was 4.4 fold, the Cmax ([5]; 2 mg/kg) was 1190 ± 330 nM and the MRT ([5]; 2 mg/kg) was 17.4 min. For the same compound, the Tmax ([5]; 2 mg/kg) was 5.8 min, the half-life ([5]; 2 mg/kg) was 14.7 ± 9 min and the Cmax ([5]; 20 mg/kg) was 18700 ± 900 nM. The MRT ([5]; 20 mg/kg) was 23.1 min, the Tmax ([5]; 20 mg/kg) was 6.3 min and the half-life ([5]; 20 mg/kg) was 13.4 ± 1.4 min. For the same compound, the clearance [5, 15] was 440 ± 50 mL/min/kg, the “increase of systemic exposure (AUC0→∞)” value ([5]; Tg-CYP2D6 mice) was 3.6 fold and the “AUC0→∞” value [5, 15] was 21.1 ± 2.3 ^b µmol·min/L. For the same compound, the “AUC0→∞” value ([5]; Tg-CYP2D6 mice, 20 mg/kg 5-MeO-DMT i.p.) was 568 ± 72 µmol·min/L, the hepatocyte CLint at 2 µM ([6]; CYP2D6 PM hepatocytes, PM hepatocytes Mean (N = 4)) was 81.9 µL/min/1e6 cells and the half-life at 2 µM ([6]; CYP2D6 PM hepatocytes, In vitro T1/2, PM hepatocytes Mean (N = 4)) was 30.8 min. The hepatocyte CLint at 2 µM ([6]; human CYP2D6 PM (poor metabolizer) hepatocytes, PM hepatocytes 1) was 66.5 µL/min/1e6 cells, the hepatocyte CLint at 2 µM ([6]; human CYP2D6 PM (poor metabolizer) hepatocytes, PM hepatocytes 2) was 95.8 µL/min/1e6 cells and the hepatocyte CLint at 2 µM ([6]; human CYP2D6 PM (poor metabolizer) hepatocytes, PM hepatocytes 3) was 88 µL/min/1e6 cells. For the same compound, the half-life at 2 µM ([6]; human CYP2D6 PM (poor metabolizer) hepatocytes, In vitro T1/2, PM hepatocytes 1) was 37.2 min, the half-life at 2 µM ([6]; human CYP2D6 PM (poor metabolizer) hepatocytes, In vitro T1/2, PM hepatocytes 2) was 27.6 min and the half-life at 2 µM ([6]; human CYP2D6 PM (poor metabolizer) hepatocytes, In vitro T1/2, PM hepatocytes 3) was 32.2 min. The half-life at 2 µM ([6]; human CYP2D6 PM (poor metabolizer) hepatocytes, In vitro T1/2, PM hepatocytes 4) was 26.1 min, the Ke ([7]; PM hepatocytes 1, 5-MeO-DMT alone, 2 µM) was 0.0186 min⁻¹ and the Ke ([7]; PM hepatocytes 1, with harmaline, 2 µM each) was 0.00086 min⁻¹. The Ke ([7]; PM hepatocytes 2, 5-MeO-DMT alone, 2 µM) was 0.0251 min⁻¹, the “In vitro T1/2” value [7, 16] was “cannot be estimated” and the Ke [7, 16] was “cannot be estimated”. For the same compound, the Ke ([7]; PM hepatocytes 3, 5-MeO-DMT alone, 2 µM) was 0.0215 min⁻¹, the “In vitro T1/2” value [7, 17] was “cannot be estimated” and the Ke [7, 17] was “cannot be estimated”. For the same compound, the Ke ([7]; PM hepatocytes 4, 5-MeO-DMT alone, 2 µM) was 0.0265 min⁻¹, the “In vitro T1/2” value [7, 18] was “cannot be estimated” and the Ke [7, 18] was “cannot be estimated”. The Ke ([7]; PM hepatocytes Mean (N = 4), 5-MeO-DMT alone, 2 µM) was 0.0229 min⁻¹, the Ke ([7]; PM hepatocytes Mean (only one sample estimable), with harmaline, 2 µM each) was 0.00086 min⁻¹ and the half-life at 2 µM ([8]; CYP2D6 EM hepatocytes, In vitro T1/2, EM hepatocytes 1) was 32.4 min. It also gave a half-life at 2 µM ([8]; CYP2D6 EM hepatocytes, In vitro T1/2, EM hepatocytes 2) of 29.9 min, a hepatocyte CLint at 2 µM ([8]; human CYP2D6 EM (extensive metabolizer) hepatocytes, EM hepatocytes 3) of 141 µL/min/1e6 cells and a hepatocyte CLint at 2 µM ([8]; human CYP2D6 EM (extensive metabolizer) hepatocytes, EM hepatocytes 4) of 51 µL/min/1e6 cells. The hepatocyte CLint at 2 µM ([8]; human CYP2D6 EM (extensive metabolizer) hepatocytes, EM hepatocytes 5) was 87.4 µL/min/1e6 cells, the half-life at 2 µM ([8]; human CYP2D6 EM (extensive metabolizer) hepatocytes, In vitro T1/2, EM hepatocytes 3) was 25.4 min and the half-life at 2 µM ([8]; human CYP2D6 EM (extensive metabolizer) hepatocytes, In vitro T1/2, EM hepatocytes 4) was 34.7 min. For the same compound, the half-life at 2 µM ([8]; human CYP2D6 EM (extensive metabolizer) hepatocytes, In vitro T1/2, EM hepatocytes 5) was 20.8 min, the half-life at 2 µM ([8]; human CYP2D6 EM (extensive metabolizer) hepatocytes, In vitro T1/2, EM hepatocytes Mean (N = 5)) was 28.6 min and the “reduction of in vitro CLint by co-administered harmaline” value ([9]; CYP2D6 EM hepatocytes, 5-MeO-DMT alone vs with harmaline) was “over 24 fold”. For the same compound, the Ke ([9]; EM hepatocytes 1, 5-MeO-DMT alone, 2 µM) was 0.0214 min⁻¹, the Ke ([9]; EM hepatocytes 1, with harmaline, 2 µM each) was 0.00259 min⁻¹ and the Ke ([9]; EM hepatocytes 2, 5-MeO-DMT alone, 2 µM) was 0.0232 min⁻¹. For the same compound, the Ke ([9]; EM hepatocytes 2, with harmaline, 2 µM each) was 0.00141 min⁻¹, the Ke ([9]; EM hepatocytes 3, 5-MeO-DMT alone, 2 µM) was 0.0273 min⁻¹ and the Ke ([9]; EM hepatocytes 3, with harmaline, 2 µM each) was 0.00263 min⁻¹. For the same compound, the Ke ([9]; EM hepatocytes 4, 5-MeO-DMT alone, 2 µM) was 0.02 min⁻¹, the Ke ([9]; EM hepatocytes 4, with harmaline, 2 µM each) was 0.00195 min⁻¹ and the Ke ([9]; EM hepatocytes 5, 5-MeO-DMT alone, 2 µM) was 0.0333 min⁻¹. For the same compound, the Ke ([9]; EM hepatocytes 5, with harmaline, 2 µM each) was 0.00061 min⁻¹, the Ke ([9]; EM hepatocytes Mean (N = 5), 5-MeO-DMT alone, 2 µM) was 0.025 min⁻¹ and the Ke ([9]; EM hepatocytes Mean (N = 5), with harmaline, 2 µM each) was 0.00184 min⁻¹.
In the case of `COc1ccc2c3c([nH]c2c1)C(C)=NCC3` [Harmaline], the Ki [10] is given as 48 nM.
`CN(C)CCc1c[nH]c2ccc(O)cc12` [Bufotenine, 5-hydroxy-N,N-dimethyltryptamine] showed a Cmax ([4]; 2 mg/kg) of 51.4 ± 9.1 nM, an MRT ([4]; 2 mg/kg) of 54.9 min and a Tmax ([4]; 2 mg/kg) of 11.3 min. It also gave a half-life ([4]; 2 mg/kg) of 33 ± 26 min, a Cmax ([4]; 20 mg/kg) of 210 ± 54 nM and an MRT ([4]; 20 mg/kg) of 55.8 min. For the same compound, the Tmax ([4]; 20 mg/kg) was 21.3 min, the half-life ([4]; 20 mg/kg) was 25.4 ± 5.3 min and the “AUC0→∞” value [4, 14] was 2.69 ± 1.21 µmol·min/L. For the same compound, the “AUC(Bufotenine)/AUC(5−MeO−DMT)” value [4, 14] was 10.5 ± 4.4%, the “AUC(Bufotenine)/AUC(5−MeO−DMT)” value ([4]; wild-type mice, 2 mg/kg 5-MeO-DMT i.p. with 5 mg/kg harmaline i.p. pretreatment) was 15.1 ± 2.9% and the “increase of Cmax by co-administered harmaline” value ([4]; wild-type mice) was “about 2.6 fold”. The “increase of MRT by co-administered harmaline” value ([4]; wild-type mice) was ~1.8 fold, the “increase of systemic exposure (AUC0→∞)” value ([4]; wild-type mice) was 6.1 fold and the “higher systemic exposure in Tg-CYP2D6 mice than wild-type mice” value ([5]; 20 mg/kg 5-MeO-DMT i.p.) was 60%. The Cmax ([5]; 2 mg/kg) was 53 ± 13 nM, the MRT ([5]; 2 mg/kg) was 33.7 min and the Tmax ([5]; 2 mg/kg) was 8.8 min. For the same compound, the half-life ([5]; 2 mg/kg) was 20.7 ± 9.8 min, the MRT ([5]; 20 mg/kg) was 52.8 min and the Tmax ([5]; 20 mg/kg) was 27.5 min. The half-life ([5]; 20 mg/kg) was 18.5 ± 1.5 min, the “AUC(Bufotenine)/AUC(5−MeO−DMT)” value [5, 15] was 8.5 ± 2.8% and the “AUC(Bufotenine)/AUC(5−MeO−DMT)” value ([5]; Tg-CYP2D6 mice, 2 mg/kg 5-MeO-DMT i.p. with 5 mg/kg harmaline i.p. pretreatment) was 24.0 ± 3.3% ^a, ^b. For the same compound, the “increase of systemic exposure (AUC0→∞)” value ([5]; Tg-CYP2D6 mice) was 9.9 fold, the “AUC0→∞” value [5, 15] was 1.82 ± 0.74 µmol·min/L and the “bufotenine formation from 5-MeO-DMT” value ([7]; CYP2D6 PM hepatocytes, even co-incubated with harmaline) was “could not produce detectable bufotenine”. For the same compound, the “bufotenine formation from 5-MeO-DMT” value ([9]; CYP2D6 EM hepatocytes) was “only detected in incubations with CYP2D6 EM hepatocytes”.
